By pEC50 is commonly meant the EC50 on a negative log10 scale, so that one unit is a factor of ten.

Results on 37 compounds are retold here after patent US20240101531A1, “PYRIDINAMINE DERIVATIVES AND THEIR USE AS POTASSIUM CHANNEL MODULATORS” (Xenon Pharmaceuticals Inc., priority 2022, published 2024).

The test has as its target human KV7.2/KV7.3 (Homo sapiens (Human), UniProt O43525+O43526). Briefly: Potassium flux assay (IPG-2 AM dye). Format: cell-based. Conditions: TREX HEK 293 or HEK 293 cells expressing human KV7.2/KV7.3; arithmetic mean values. An excerpt: This potassium flux assay employs the cell-permeable, potassium-sensitive dye, IPG-2 AM, to quantify potassium ion flux through potassium channels.
In general, TREX HEK 293 or HEK 293 cells were stably transfected with either an inducible or non-inducible expression vector containing the full-length cDNA coding for the desired human KV7.2/KV7.3 or in combination with another full-length cDNA for a second desired human KV7 potassium channel. Potassium channel-expressing cell lines were induced with tetracycline (1 μg/mL), if required, and plated on 384-well poly-D-lysine (PDL)-coated plates in culture media (DMEM, containing 10% FBS and 1% L-glutamine). After overnight incubation, culture media was removed and cells were loaded with 5 μM IPG-2 AM dye for 1 hour in Assay buffer (140 mM NaCl, 20 mM RbCl, 2 mM CaCl2, 1 mM MgCl2, 10 mM HEPES (4-(2-hydroxyethyl)-1-piperazineethanesulfonic acid buffer), 10 mM glucose, adjusted with Tris to pH 7.4). Excess dye was removed, and cells incubated at room temperature for 20 minutes with or without test compound. A Hamamatsu FDSS μCell was used to perform a 1:1 addition of K challenge buffer (150 mM NaCl, 10 mM HEPES, 2 mM CaCl2, 10 mM KCl, 1 mM MgCl2, 10 mM glucose, adjusted with Tris to pH 7.4 for human KV7.2/KV7.3, and simultaneously read plates at excitation wavelength of 530 nm and emission wavelength of 558 nm. Non-potassium channel-mediated potassium influx was determined in the presence of DMSO, and maximal influx was determined in the presence of a known KV7.x channel modulator. For each test compound, a concentration response curve was generated with 16 concentrations points, 2-fold serial dilution starting at 30 μM and an EC50 value was determined.

SMILES strings stand for the structures. pEC50: −log10 of the molar value. Counter-ions that a name gives are not always drawn. Bounds are passed on as bounds.

Regarding `Clc1ccc(Nc2nccc3cc(OCC4CC5(COC5)C4)ccc23)cn1` [Example 81, 6-((2-oxaspiro[3.3]heptan-6-yl)methoxy)-N-(6-chloropyridin-3-yl)isoquinolin-1-amine], the pEC50 was 5.00 to 6.00.

As to `N#CC1(COc2ccc3c(Nc4ccc(Cl)nc4)nccc3c2)COC1` [Example 85, 3-(((1-((6-chloropyridin-3-yl)amino)isoquinolin-6-yl)oxy)methyl)oxetane-3-carbonitrile], the pEC50 is more than 6.00.

As to `CS(=O)(=Nc1ccc2c(Nc3ccc(Cl)nc3)nccc2c1)C1CC1` (stereo not shown) [Example 268, ((1-((6-chloropyridin-3-yl)amino)isoquinolin-6-yl)imino)(cyclopropyl)(methyl)-λ^6-sulfanone], the pEC50 is more than 6.00. Regarding `Clc1ccc(Nc2nccc3cc(OCC4CC4)cnc23)cn1` [Example 255, N-(6-chloropyridin-3-yl)-3-(cyclopropylmethoxy)-1,7-naphthyridin-8-amine], the pEC50 was 5.00 to 6.00. The figure for `COCCN1CCC(Oc2ccc3c(Nc4ccc(Cl)nc4)nccc3c2)CC1` [Example 119, N-(6-chloropyridin-3-yl)-6-((1-(2-methoxyethyl)piperidin-4-yl)oxy)isoquinolin-1-amine] is 4.52 to 5.00. For the compound `Cn1nc(COc2ccc3c(Nc4ccc(Cl)nc4)nccc3c2)cc1C#N` [Example 62, 3-(((1-((6-chloropyridin-3-yl)amino)isoquinolin-6-yl)oxy)methyl)-1-methyl-1H-pyrazole-5-carbonitrile], the pEC50 was 5.00 to 6.00. As for `Clc1ccc(Nc2nccc3cc(OCC4CCCO4)ccc23)cn1` (stereo not shown) [Example 217, N-(6-chloropyridin-3-yl)-6-((tetrahydrofuran-2-yl)methoxy)isoquinolin-1-amine], the figure is 5.00 to 6.00. With `O[C@@H]1CCC[C@H](Oc2ccc3c(Nc4cnc(Cl)nc4)nccc3c2)C1` (relative stereo) [Example 348, cis-3-((1-((2-chloropyrimidin-5-yl)amino)isoquinolin-6-yl)oxy)cyclohexan-1-ol], the pEC50 is more than 6.00. As to `CS(=O)(=Nc1ccc2c(Nc3ccc(Cl)nc3)nccc2c1)C1COC1` (stereo in doubt) [Example 276, (S)-((1-((6-chloropyridin-3-yl)amino)isoquinolin-6-yl)imino)(methyl)(oxetan-3-yl)-λ^6-sulfanone)], the pEC50 was 5.00 to 6.00. In the case of `Clc1ccc(Nc2nccc3ccsc23)cn1` [Example 12, N-(6-chloropyridin-3-yl)thieno[2,3-c]pyridin-7-amine], the negative logarithm of the EC50 (pEC50) was 5.00 to 6.00. As for `Clc1ccc(Nc2ncc(NCc3ccccc3)c3cc[nH]c23)cn1` [Example 403, N^4-benzyl-N^7-(6-chloropyridin-3-yl)-1H-pyrrolo[2,3-c]pyridine-4,7-diamine], the figure is 4.52 to 5.00; as for `Cn1ncc(COc2ccc3c(Nc4ccc(Cl)nc4)nccc3c2)c1Cl` [Example 291, 6-((5-chloro-1-methyl-1H-pyrazol-4-yl)methoxy)-N-(6-chloropyridin-3-yl)isoquinolin-1-amine], 5.00 to 6.00. Turning to `CC(Oc1ccc2c(Nc3ccc(Cl)nc3)nccc2c1)C1CC1` (stereo not shown) [Example 29, N-(6-chloropyridin-3-yl)-6-(1-cyclopropylethoxy)isoquinolin-1-amine], the pEC50 is 5.00 to 6.00.

Consider `Clc1ccc(Nc2nccc3cc(N4CCCC4)ccc23)cn1` [Example 421, N-(6-chloropyridin-3-yl)-6-(pyrrolidin-1-yl)isoquinolin-1-amine], for which the pEC50 is 5.00 to 6.00. For the compound `Cn1cc(Oc2ccc3c(Nc4ccc(Cl)nc4)nccc3c2)cn1` [Example 311, N-(6-chloropyridin-3-yl)-6-((1-methyl-1H-pyrazol-4-yl)oxy)isoquinolin-1-amine], the pEC50 is 5.00 to 6.00. Take `N#C[C@@H]1CCC[C@H](Oc2ccc3c(Nc4ccc(Cl)nc4)nccc3c2)C1` [Example 343, (1R,3S)-3-((1-((6-chloropyridin-3-yl)amino)isoquinolin-6-yl)oxy)cyclohexane-1-carbonitrile]: the pEC50 is 5.00 to 6.00. For the compound `Clc1ccc(Nc2nccc3cc(OCc4cnccn4)ccc23)cn1` [Example 94, N-(6-chloropyridin-3-yl)-6-(pyrazin-2-ylmethoxy)isoquinolin-1-amine], the negative logarithm of the EC50 (pEC50) is 4.52 to 5.00.

Consider `FC1(COc2ccc3c(Nc4ccc(Cl)nc4)nccc3c2)COC1` [Example 52, N-(6-chloropyridin-3-yl)-6-((3-fluorooxetan-3-yl)methoxy)isoquinolin-1-amine], for which the pEC50 is more than 6.00.

In the case of `COC1(COc2ccc3c(Nc4cnc(C)nc4)nccc3c2)COC1` [Example 219, 6-((3-methoxyoxetan-3-yl)methoxy)-N-(2-methylpyrimidin-5-yl)isoquinolin-1-amine formate], the pEC50 is 5.00 to 6.00. Take `Clc1ccc(Nc2nccc3sccc23)cn1` [Example 11, N-(6-chloropyridin-3-yl)thieno[3,2-c]pyridin-4-amine formate]: the pEC50 is 5.00 to 6.00. As for `Clc1ccc(Nc2nccc3cc(OCc4cc[nH]n4)ccc23)cn1` [Example 391, 6-((1H-pyrazol-3-yl)methoxy)-N-(6-chloropyridin-3-yl)isoquinolin-1-amine], the figure is 5.00 to 6.00; as for `Fc1cccc2c(Nc3ccc(Cl)nc3)nccc12` [Example 22, N-(6-chloropyridin-3-yl)-5-fluoroisoquinolin-1-amine], 5.00 to 6.00. The figure for `Cn1cc(COc2cnc3c(Nc4ccc(Cl)nc4)nccc3c2)cn1` [Example 252, N-(6-chloropyridin-3-yl)-3-((1-methyl-1H-pyrazol-4-yl)methoxy)-1,7-naphthyridin-8-amine] is more than 6.00. Regarding `Clc1ccc(Nc2nccc3cc(O[C@H]4CCC5(COC5)C4)ccc23)cn1` [Example 135, (S)-6-((2-oxaspiro[3.4]octan-6-yl)oxy)-N-(6-chloropyridin-3-yl)isoquinolin-1-amine], the pEC50 was more than 6.00. As for `N#CC(F)(COc1ccc2c(Nc3cnc(Cl)nc3)nccc2c1)C1CC1` (stereo not shown) [Example 146, 3-((1-((2-chloropyrimidin-5-yl)amino)isoquinolin-6-yl)oxy)-2-cyclopropyl-2-fluoropropanenitrile], the pEC50 is more than 6.00.

Take `Clc1ccc(Nc2nccc3cc(OCCCc4cn[nH]c4)ccc23)cn1` [Example 260, 6-(3-(1H-pyrazol-4-yl)propoxy)-N-(6-chloropyridin-3-yl)isoquinolin-1-amine]: the pEC50 was more than 6.00. Take `Clc1ncc(Nc2nccc3cc(OCC4CC4)ccc23)cn1` [Example 9, N-(2-chloropyrimidin-5-yl)-6-(cyclopropylmethoxy)isoquinolin-1-amine]: the pEC50 is more than 6.00. In the case of `Cc1ncc(Nc2nccc3cc(O[C@@H]4CCC[C@H](O)C4)ccc23)cn1` [Example 340, (1 S,3R)-3-((1-((2-methylpyrimidin-5-yl)amino)isoquinolin-6-yl)oxy)cyclohexan-1-ol], the pEC50 is more than 6.00. As for `Clc1ccc(Nc2nccc3cc(OCc4cnn5c4CCC5)ccc23)cn1` [Example 281, N-(6-chloropyridin-3-yl)-6-((5,6-dihydro-4H-pyrrolo[1,2-b]pyrazol-3-yl)methoxy)isoquinolin-1-amine], the pEC50 was 4.52 to 5.00.

Take `CS(=O)(=Nc1ccc2c(Nc3ccc(Cl)nc3)nccc2c1)C1COC1` (stereo not shown) [Example 275, ((1-((6-chloropyridin-3-yl)amino)isoquinolin-6-yl)imino)(methyl)(oxetan-3-yl)-λ^6-sulfanone]: the pEC50 is 5.00 to 6.00.

In the case of `Clc1ccc(Nc2nccc3cc(OCc4ncccn4)ccc23)cn1` [Example 193, N-(6-chloropyridin-3-yl)-6-(pyrimidin-2-ylmethoxy)isoquinolin-1-amine], the pEC50 is 5.00 to 6.00.

Consider `CC1CN(CCOc2ccc3c(Nc4ccc(Cl)nc4)nccc3c2)CCO1` (stereo not shown) [Example 323, N-(6-chloropyridin-3-yl)-6-(2-(2-methylmorpholino)ethoxy)isoquinolin-1-amine], for which the pEC50 was 5.00 to 6.00. For `Fc1c(NCC2CC2)ccc2c(Nc3ccc(Cl)nc3)nccc12` [Example 232, N^1-(6-chloropyridin-3-yl)-N^6-(cyclopropylmethyl)-5-fluoroisoquinoline-1,6-diamine], the pEC50 is 5.00 to 6.00.

`Clc1ncc(Nc2nccc3cc(OCc4ccncc4)ccc23)cn1` [Example 202, N-(2-chloropyrimidin-5-yl)-6-(pyridin-4-ylmethoxy)isoquinolin-1-amine]: the pEC50 is more than 6.00. Take `Clc1ccc(Nc2nccc3cc(Oc4cn[nH]c4)ccc23)cn1` [Example 267, 6-((1H-pyrazol-4-yl)oxy)-N-(6-chloropyridin-3-yl)isoquinolin-1-amine]: the pEC50 was 5.00 to 6.00.

Turning to `COC1(COc2ccc3c(Nc4ccc(Cl)nc4)nccc3c2)CC1` [Example 177, N-(6-chloropyridin-3-yl)-6-((1-methoxycyclopropyl)methoxy)isoquinolin-1-amine], the pEC50 is more than 6.00. For `CS(=O)(=Nc1ccc2c(Nc3ccc(Cl)nc3)nccc2c1)C1CC1` (stereo in doubt) [Example 273, (R)-((1-((6-chloropyridin-3-yl)amino)isoquinolin-6-yl)imino)(cyclopropyl)(methyl)-λ^6-sulfanone], the pEC50 is 5.00 to 6.00.
